Source: patent US20250333397A1 (REMIX THERAPEUTICS INC., priority 2021, published 2025)
Like-named read-outs stand apart in the source and are kept apart here.

Experiments:
Format in all cases: cell-based, human
[1] = test system: HTT mRNA; assay: RT-qPCR splicing assay, HTT canonical (CJ) and alternative (AJ) junction mRNA; details: Homo sapiens; for AC50: read-out: HTT AJ (AC50, increase in AJ mRNA)
Outline: (§1)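 24 h compound exposure of A673 or K562 cells at 37 °C, 10 uM top final concentration, 3-fold steps, DMSO ≤0.25%. Splice-isoform levels determined by qPCR on cDNA from lysates, run at least in duplicate; values expressed as RQ normalized to GAPDH, GUSB or PPIA and DMSO.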

[2] = test system: MYB mRNA; assay: RT-qPCR splicing assay, MYB canonical (CJ) and alternative (AJ) junction mRNA; details: Homo sapiens; for AC50: read-out: MYB AJ (AC50, increase in AJ mRNA)
Outline: as §1

[3] = test system: SMN2 mRNA; assay: RT-qPCR splicing assay panel, SMN2 canonical junction (CJ) mRNA; details: Homo sapiens
Outline: as §1

[4] = test system: Target C mRNA; assay: RT-qPCR splicing assay panel, Target C canonical junction (CJ) mRNA; details: Homo sapiens
Outline: as §1

[5] = 24 h, Table 3A, A673 or K562 cells, 24 h treatment
[6] = 24 h, Table 3A, A673 or K562 cells, 24 h treatment, read-out: HTT CJ (IC50, decrease in CJ mRNA)
[7] = canonical junction (CJ) mRNA, RT-qPCR panel, Table 4A, read-out: HTT, decrease in CJ mRNA levels, IC50
[8] = 24 h, Table 3A, A673 or K562 cells, 24 h treatment, read-out: MYB CJ (IC50, decrease in CJ mRNA)
[9] = canonical junction (CJ) mRNA, RT-qPCR panel, Table 4A, read-out: MYB, decrease in CJ mRNA levels, IC50
[10] = canonical junction (CJ) mRNA, RT-qPCR panel, Table 4A, read-out: SMN2, decrease in CJ mRNA levels, IC50
[11] = canonical junction (CJ) mRNA, RT-qPCR panel, Table 4A, read-out: Target C, decrease in CJ mRNA levels, IC50
[12] = 24 h, Table 3B, A673 or K562 cells, 24 h treatment

Compound | AC50 [1, 5] [nM] | IC50 [1, 6] [nM] | IC50 [1, 7] [nM] | AC50 [2, 5] [nM] | IC50 [2, 8] [nM] | IC50 [2, 9] [nM] | IC50 [3, 10] [nM] | IC50 [4, 11] [nM] | AC50 [1, 12] [nM] | IC50 ([1]; 24 h, Table 3B, A673 or K562 cells, 24 h treatment, read-out: HTT CJ (IC50, decrease in CJ mRNA)) [nM] | IC50 ([1]; Table 4B, gene panel, read-out: HTT (IC50, decrease in CJ mRNA levels)) [nM] | AC50 [2, 12] [nM] | IC50 ([2]; 24 h, Table 3B, A673 or K562 cells, 24 h treatment, read-out: MYB CJ (IC50, decrease in CJ mRNA)) [nM] | IC50 ([2]; Table 4B, gene panel, read-out: MYB (IC50, decrease in CJ mRNA levels)) [nM] | IC50 ([3]; Table 4B, gene panel, read-out: SMN2 (IC50, decrease in CJ mRNA levels)) [nM] | IC50 ([4]; Table 4B, gene panel, read-out: Target C (IC50, decrease in CJ mRNA levels)) [nM]
Oc1cc(-c2cn[nH]c2)ccc1-c1ccc(N2CCC(NC3(C(F)F)CC3)C2)nn1 (stereo not shown) [Compound 117, 2-[6-(3-{[1-(difluoromethyl)cyclopropyl]amino}pyrrolidin-1-yl)pyridazin-3-yl]-5-(1H-pyrazol-4-yl)phenol] | 1000 to 10000 | 1000 to 10000 | 1000 to 10000 | > 10000 | > 10000 | > 10000 | 100 to 1000 | > 10000 |  |  |  |  |  |  |  | 
COc1cc(-c2cc(O)c(-c3ccc(N4CCC(N[C@H]5C[C@@H](F)C5)C4)nn3)cc2F)cnn1 (stereo partly shown) [Compound 273, 4-fluoro-5-(6-methoxypyridazin-4-yl)-2-[6-(3-{[(1s,3s)-3-fluorocyclobutyl]amino}pyrrolidin-1-yl)pyridazin-3-yl]phenol] | 100 to 1000 | 100 to 1000 | 100 to 1000 | 100 to 1000 | 100 to 1000 | 100 to 1000 | < 100 | 100 to 1000 |  |  |  |  |  |  |  | 
Cc1ncc(-c2ccc(-c3ccc(N4CC[C@](C)(NCC5CC5)C4)nn3)c(O)c2)s1 (single isomer, unassigned) [Compound 438] | 100 to 1000 | < 100 | < 100 | 100 to 1000 | 100 to 1000 | 100 to 1000 | < 100 | 100 to 1000 |  |  |  |  |  |  |  | 
COc1cc(-c2ccc(-c3ccc(N4CCC(N[C@H]5C[C@H](O)C5)C4)nn3)c(O)c2)cnn1 (stereo partly shown) [Compound 447] | < 100 | < 100 | < 100 | 100 to 1000 | 100 to 1000 | 100 to 1000 | < 100 | 100 to 1000 |  |  |  |  |  |  |  | 
Cn1cc2nc(-c3ccc(-c4ccc(N5CCC(NC6CCC6)C5)nn4)c(O)c3)ccc2n1 (stereo not shown) [Compound 319] | 100 to 1000 | 100 to 1000 | 100 to 1000 | 100 to 1000 | 1000 to 10000 | 1000 to 10000 | 100 to 1000 | 1000 to 10000 |  |  |  |  |  |  |  | 
Oc1cc(-c2ccnnc2)ccc1-c1ccc(N2CCC(NC3CCC3)C2)nn1 (stereo not shown) [Compound 388] | 1000 to 10000 | 1000 to 10000 | 1000 to 10000 | 1000 to 10000 | 1000 to 10000 | 1000 to 10000 | 100 to 1000 | 1000 to 10000 |  |  |  |  |  |  |  | 
Cc1ncc(-c2cc(O)c(-c3ccc(N4CC[C@@H](N[C@H](C)C5CC5)C4)nn3)cc2F)s1 [Compound 418] | < 100 | < 100 | < 100 | < 100 | < 100 | < 100 | < 100 | < 100 |  |  |  |  |  |  |  | 
Cc1cn(-c2cc(O)c(-c3ccc(N4CC[C@H](NC5CCC5)C4)nn3)cc2F)cn1 [Compound 227, 2-{6-[(3S)-3-(cyclobutylamino)pyrrolidin-1-yl]pyridazin-3-yl}-4-fluoro-5-(4-methylimidazol-1-yl)phenol] | < 100 | < 100 | < 100 | 100 to 1000 | 100 to 1000 | 100 to 1000 | < 100 | 100 to 1000 |  |  |  |  |  |  |  | 
CCc1cc(-c2ccc(-c3ccc(N4CC[C@@H](NC5CCC5)C4)nn3)c(O)c2)cnn1 [Compound 277, 2-{6-[(3R)-3-(cyclobutylamino)pyrrolidin-1-yl]pyridazin-3-yl}-5-(6-ethylpyridazin-4-yl)phenol] | > 10000 | 1000 to 10000 | 1000 to 10000 | > 10000 | 1000 to 10000 | 1000 to 10000 | 1000 to 10000 | > 10000 |  |  |  |  |  |  |  | 
Cc1nc2cc(O)c(-c3cnc(N4CC[C@@H](NC(C)(C)C)C4)nn3)cc2o1 [Compound 808] |  |  |  |  |  |  |  |  | > 10000 | 1000 to 10000 | 1000 to 10000 | > 10000 | > 10000 | > 10000 | 1000 to 10000 | > 10000
Cc1nsc(-c2cc(O)c(-c3ccc(N4CC[C@@H](NCC5CC5)C4)nn3)cc2F)n1 [Compound 431] | 100 to 1000 | 100 to 1000 | 100 to 1000 | 100 to 1000 | 100 to 1000 | 100 to 1000 | < 100 | 100 to 1000 |  |  |  |  |  |  |  | 
Cc1ccc(-c2ccc(-c3ccc(N4CCC(NC5CCC5)C4)nn3)c(O)c2)o1 (stereo not shown) [Compound 325, 2-{6-[3-(cyclobutylamino)pyrrolidin-1-yl]pyridazin-3-yl}-5-(5-methylfuran-2-yl)phenol] | 1000 to 10000 | 1000 to 10000 | 1000 to 10000 | 1000 to 10000 | 1000 to 10000 | 1000 to 10000 | 1000 to 10000 | 1000 to 10000 |  |  |  |  |  |  |  | 
Oc1cc(-c2cn[nH]c2)ccc1-c1ccc(N2CCN[C@@H](C3CC3)C2)nn1 [Compound 263] | < 100 | < 100 | < 100 | 100 to 1000 | 100 to 1000 | 100 to 1000 | < 100 | 100 to 1000 |  |  |  |  |  |  |  | 
Cc1ncc(-c2cc(O)c(-c3ccc(OC4CC(C)(C)NC(C)(C)C4)nn3)cc2F)s1 [Compound 385] | < 100 | < 100 | < 100 | 100 to 1000 | 100 to 1000 | 100 to 1000 | < 100 | 100 to 1000 |  |  |  |  |  |  |  | 
Cc1nsc(-c2cc(O)c(-c3ccc(N4CC[C@H](NCC5CC5)C4)nn3)cc2F)n1 [Compound 432] | 100 to 1000 | < 100 | < 100 | 100 to 1000 | 1000 to 10000 | 1000 to 10000 | < 100 | 100 to 1000 |  |  |  |  |  |  |  | 
Cc1ncc(-c2cc(O)c(-c3ccc(N4CC[C@@H](NC5CCC5)C4)nn3)cc2F)s1 [Compound 146, 2-{6-[(3R)-3-(cyclobutylamino)pyrrolidin-1-yl]pyridazin-3-yl}-4-fluoro-5-(2-methyl-1,3-thiazol-5-yl)phenol] | < 100 | < 100 | < 100 | < 100 | < 100 | < 100 | < 100 | < 100 |  |  |  |  |  |  |  | 
COc1cc(-c2ccc(-c3ccc(N4CCC(NC5CCC5)C4)nn3)c(O)c2)c(F)cn1 (stereo not shown) [Compound 307] | 1000 to 10000 | 1000 to 10000 | 1000 to 10000 | > 10000 | > 10000 | > 10000 | 1000 to 10000 | > 10000 |  |  |  |  |  |  |  | 
